According to patent publication US9498436B2, “Testosterone solutions for the treatment of testosterone deficiency” (INNOTESTO BVBA, priority 2010, dated 2016):
Where “and” joins values, the source holds several entries; their conditions need not be identical. Equal entries are not always repeated.

Assay: Testosterone serum level after oromucosal (buccal) administration of testosterone solution, chemiluminescent-immunoassay
Details: for mean increase of the testosterone level per 500 μg T: 30 minutes after buccal administration; for increase per 100 μg T / increase per 500 μg T: buccal solution; for concentration at 30 min: increase of testosterone serum level, 30 minutes post dose, volunteer, baseline 10-15 nmol/L
Method: Devices used in the experimental oromucosal application of the solutions of the invention were glass bottles with a spray device from Valois, type VP7, allowing the administration of volumes of 25 μL, 50 μL and 100 μL
Blood samples were taken and analysed for testosterone serum levels using a chemiluminescent-immunoassay (Access Beckman Coulter).
• Testosterone levels were measured 30 minutes after buccal administration of the testosterone solution by a spray pump with a spray volume of 25 μl, 50 μl or 100 μl. • Oromucosal (buccal,sublingual) testosterone solutions administered were in 17 cases a solution in water containing as main constituents testosterone and RAMEB and in 7 cases testosterone in a solution containing as main excipient isopropyl myristate.

[1] = dose 125 μg T, 30 minutes after administration
[2] = dose 300 μg T, 30 minutes after administration
[3] = dose 375 μg T, 30 minutes after administration, separate applications
[4] = dose 400 μg T, 30 minutes after administration, separate applications
[5] = dose 570 μg T, 30 minutes after administration, separate applications
[6] = dose 1000 μg T, 30 minutes after administration
[7] = dose 1150 μg T, 30 minutes after administration
[8] = mean of 24 buccal applications (17 aqueous, 7 non-aqueous), 30 minutes after administration
[9] = oromucosal, general statement in description

Q: Which “testosterone (T) serum level” value (Volunteer M, sample M3, 10.00 am, aqueous solution 500 μg T at 7.30 am, 375 μg T at 9.30 and 11.30 am) does the source give for `C[C@]12CC[C@H]3[C@@H](CCC4=CC(=O)CC[C@@]43C)[C@@H]1CC[C@@H]2O` [testosterone] here?
A: Its value is 25.45 nmol/L.

Q: And the “testosterone (T) serum level” value (Volunteer M, sample M4, 12.00 am, aqueous solution 500 μg T at 7.30 am, 375 μg T at 9.30 and 11.30 am)?
A: Its value is 18.81 nmol/L.

Q: And the “mean increase of the testosterone level per 500 μg T” value (aqueous formulations (testosterone and RAMEB, ethanol 15% v/v), 17 cases)?
A: The value was 15.2 nmol/L.

Q: What about the “increase per 100 μg T” value [1] of the same compound?
A: The value was 2.7 nmol/L.

Q: What about the “increase per 500 μg T” value [1] of the same compound?
A: Its value is 14 nmol/L.

Q: And the “increase per 100 μg T” value [2]?
A: The value was 4.2 nmol/L.

Q: What about the “increase per 500 μg T” value [2] of the same compound?
A: The value was 21 nmol/L.

Q: And the “increase per 100 μg T” value [3]?
A: The value was 4.3 nmol/L and 2.4 nmol/L.

Q: What about the “increase per 500 μg T” value [3] of the same compound?
A: The value was 22 nmol/L and 12 nmol/L.

Q: What about the “increase per 100 μg T” value [4] of the same compound?
A: The value was 3.0 nmol/L and 2.0 nmol/L.

Q: And the “increase per 500 μg T” value [4]?
A: The value was 15 nmol/L and 10 nmol/L.

Q: What about the “increase per 100 μg T” value [5] of the same compound?
A: The value was 4.0 nmol/L and 4.4 nmol/L.

Q: And the “increase per 500 μg T” value [5]?
A: The value was 20 nmol/L and 22 nmol/L.

Q: What about the “increase per 100 μg T” value [6] of the same compound?
A: Its value is 3.8 nmol/L.

Q: And the “increase per 500 μg T” value [6]?
A: The value was 19 nmol/L.

Q: And the “increase per 100 μg T” value [7]?
A: Its value is 3.1 nmol/L.

Q: What about the “increase per 500 μg T” value [7] of the same compound?
A: The value was 16 nmol/L.

Q: And the concentration at 30 min (human, serum, other: buccal (oromucosal spray), 400 μg, non-aqueous solution, 50 μL=400 μg testosterone buccally)?
A: The concentration at 30 min was 18 nM.

Q: What about the concentration at 30 min (human, serum, other: buccal (oromucosal spray), 500 μg, aqueous solution, 100 μL (=500 μg testosterone) buccally) of the same compound?
A: The concentration at 30 min was 20 nM.

Q: And the concentration at 30 min (human, serum, other: buccal (oromucosal spray), 800 μg, non-aqueous solution, 100 μL=800 μg testosterone buccally)?
A: The concentration at 30 min was 36 nM.

Q: What about the concentration at 30 min (human, serum, other: buccal (oromucosal spray), 1000 μg, aqueous solution, 2×100 μL (=1000 μg testosterone) buccally) of the same compound?
A: The concentration at 30 min was 38 nM.

Q: What about the concentration at 0 h (human, serum, other: buccal (oromucosal spray), testosterone (T) serum level, Volunteer D, sample D1, 7.30 am (time of first dose), aqueous solution 500 μg T at 7.30, 9.30, 11.30 am) of the same compound?
A: The concentration at 0 h was 11.9 nM.

Q: And the concentration at 0.5 h (human, serum, other: buccal (oromucosal) solution, spray, 500 μg, testosterone (T) serum level, Volunteer D, sample D2, 8.00 am, aqueous solution 500 μg T at 7.30, 9.30, 11.30 am)?
A: Its concentration at 0.5 h is 18.6 nM.

Q: And the concentration at 2.5 h (human, serum, other: buccal (oromucosal) solution, spray, 500 μg, testosterone (T) serum level, Volunteer D, sample D3, 10.00 am, aqueous solution 500 μg T at 7.30, 9.30, 11.30 am)?
A: The concentration at 2.5 h was 28.1 nM.

Q: And the concentration at […] (human, serum, other: buccal (oromucosal) solution, spray, 500 μg, testosterone (T) serum level, Volunteer D, sample D4, 12.00 am, aqueous solution 500 μg T at 7.30, 9.30, 11.30 am)?
A: Its concentration at […] is 28.7 nM.

Q: And the concentration at 0 h (human, serum, other: buccal (oromucosal) solution, spray, 500 μg, testosterone (T) serum level, Volunteer M, sample M1, 7.30 am (time of first dose), aqueous solution 500 μg T at 7.30 am, 375 μg T at 9.30 and 11.30 am)?
A: The concentration at 0 h was 8.72 nM.

Q: What about the concentration at 0.5 h (human, serum, other: buccal (oromucosal) solution, spray, 500 μg, testosterone (T) serum level, Volunteer M, sample M2, 8.00 am, aqueous solution 500 μg T at 7.30 am, 375 μg T at 9.30 and 11.30 am) of the same compound?
A: The concentration at 0.5 h was 25.5 nM.

Q: And the “mean (SD) increase per 100 μg T” value [8]?
A: Its value is 3.1 nmol/L and 3.1(0.9) nmol/L.

Q: What about the “mean (SD) increase per 500 μg T” value [8] of the same compound?
A: Its value is 15.7 nmol/L and 15.7(4.6) nmol/L.

Q: And the “mean increase of the testosterone level per 500 μg T” value (non-aqueous formulations (isopropyl myristate, ethanol 15% v/v), 7 cases)?
A: Its value is 16.7 nmol/L.

Q: What about the “mean increase in testosterone serum level for each 0.1 mg testosterone dose administered” value [9] of the same compound?
A: Its value is “about 3 nmol/L”.

Q: And the “mean increase in testosterone serum level for each 0.5 mg testosterone dose administered” value [9]?
A: Its value is “about 15 nmol/L”.
